Consider 11 compounds from ChEMBL document CHEMBL3272329, “Stereochemical analogs of a muscarinic, ganglionic stimulant. 2. Cis and trans olefinic, epoxide, and cyclopropane analogs related to 4-[N-(3-chlorophenyl)carbamoyloxy]-2-butynyltrimethylammonium chloride (McN-A-343)” (1976).

Calls of active or inactive are those of the source. The calls are words filed in the database; no cut-off is given here.

Assay [1] relates to Felis catus. In words: Induction of ganglion stimulating activity in cat assessed as increase in blood pressure at 1 to 300 ug/kg, iv by […]. The assay is classed as functional.
The species named for assay [2] is Oryctolagus cuniculus. In words: Agonist activity at muscarinic receptor in rabbit ileum assessed as […]. In kind it is tissue-based.
Assay [3] has as its system Felis catus. Briefly: Induction of ganglion stimulating activity in iv dosed cat assessed as slight increase in blood pressure administered at 300 ug/kg, iv by […]. In kind it is functional, organism-based.
The species entered for assay [4] is Oryctolagus cuniculus. Briefly: Agonist activity at muscarinic receptor in rabbit ileum assessed as […] relative to acetylcholine. In kind it is tissue-based.

With `C[N+](C)(C)CC#CCOC(=O)Nc1ccc(Cl)cc1`, the outcome in assay [1] was Active. As for `C[N+](C)(C)C[C@H]1C[C@H]1COC(=O)Nc1ccc(Cl)cc1` (relative stereo), in assay [1], the outcome was inactive. As for `C[N+](C)(C)C[C@@H]1C[C@H]1COC(=O)Nc1ccc(Cl)cc1`, the result in assay [1] was inactive. On to `C[N+](C)(C)C[C@H]1O[C@H]1COC(=O)Nc1ccc(Cl)cc1` (relative stereo), for which the outcome in assay [1] was Active. In addition, the outcome in assay [2] was inactive. For `C[N+](C)(C)C[C@H]1O[C@@H]1COC(=O)Nc1ccc(Cl)cc1` (relative stereo), in assay [1], the outcome was Active. Further, in assay [2], the result was inactive. With `C[N+](C)(C)C/C=C\COC(=O)Nc1ccc(Cl)cc1.[I-]`, in assay [1], the “fold change (FC)” value worked out at 3. In assay [3], the result was Active. Besides, the outcome in assay [2] was inactive. For `C[N+](C)(C)CC#CCOC(=O)Nc1cccc(Cl)c1`, the outcome in assay [1] was Active. Regarding `CN(C)C[C@H]1C[C@@H]1CO` (relative stereo), the outcome in assay [2] was inactive. `C[N+](C)(C)C/C=C/COC(=O)Nc1cccc(Cl)c1`: the outcome in assay [3] was Active.

In the case of `C[N+](C)(C)C/C=C/COC(=O)Nc1ccc(Cl)cc1.[I-]`, the “fold change (FC)” value in assay [1] is reported as 3. Besides, the Activity in assay [4] amounted to 1%. On to `CN(C)C[C@@H]1C[C@@H]1CO` (relative stereo), for which, in assay [2], the result was inactive.
